Measured values as given in patent US7662565B2, “Approaches to identify less harmful tobacco and tobacco products” (Vector Tobacco, Inc., priority 2004, dated 2010).
Where two headings read alike, the source gives them in different places.

Tests used:
[1] = tested on: A549 cells; assay: γH2AX DNA damage assay, A549 cells exposed to whole smoke or vapor phase of smoke (Example 2); assay type: cell-based, human; conditions: for suppression of DNA damage (γH2AX): 25 mM NAC present during exposure; for effect of NAC on DNA damage: 25 mM NAC during exposure (FIG. 10); for IC50: Homo sapiens, from graph FIG. 11, read-out: concentration of NAC that reduced DNA damage by 50%
[2] = tested on: NHBE cells; assay: γH2AX DNA damage assay, NHBE cells exposed to whole smoke or vapor phase of smoke (Example 2); assay type: cell-based, human
Excerpt: In order to compare DNA damage as a function of the cell's position in the cell cycle, γH2AX values were normalized to DNA content since histone content doubles as cells proceed from G1 to G2 phase. Thus, in order to determine any change in histone H2AX phosphorylation independent of changes in histone/DNA content or DNA ploidy, the values for S and G2M phase populations, gated according to DNA content, were multiplied by 0.75 and 0.5, respectively. In instances where “normalized” values of γH2AX are presented, these values were obtained by subtracting the mean values of each cell cycle population (or the total population) from the mean of the mock-treated population whose γH2AX values represent “scheduled” γH2AX expression. In all instances, the values presented represent the mean γH2AX fluorescence of the population; typically 3-5×10^3 cells were analyzed for each condition.
The response of NHBE cells to whole smoke from IM 16 cigarettes was more or less identical to that observed for A549 cells (FIG. 7C). The one difference between the two cell lines was that S phase cells in NHBE cultures always expressed higher “scheduled” amounts of γH2AX.
In the next series of experiments, it was determined that DNA damage caused by whole smoke can be mitigated by the presence of NAC. Using a standardized set of conditions (20 min of exposure followed by a 1 h recovery), DNA damage caused by whole smoke from IM 16 cigarettes was assayed in both A549 and NHBE cells. NAC at a concentration of 25 mM was either absent or present during exposure and absent or present during the 1 h recovery time. In this instance, the background or “scheduled” γH2AX expression observed in Mock-treated cells was subtracted from each measurement. The remaining fluorescence should be indicative of the level of DNA DSBs under each set of conditions.
The vapor phase from IM 16 CS cause only about 30% (29.7%) of the damage caused by whole smoke whereas the vapor phase of smoke from Quest 1® caused 97% less damage than whole smoke from IM 16 cigarettes.

[3] = tested on: A549 cells; assay: Clonogenic survival assay (Example 3); assay type: cell-based
Method: A clonogenic survival assay was used to study the ability of tobaccos and tobacco products to impact the proliferation of cells. The experiment involves four major steps: (1) inoculate cells into culture dishes and incubate for 24-48 hours; (2) upon reaching the logarithmic phase of growth, the treatment is applied; the treatment in this case is freshly prepared and diluted CS for increasing periods of time; (3) the cells are then allowed to recover for a set number of hours (up to 24), then the cells are trypsinized, replated at specific dilutions, and allowed to continue growing for 5-7 days; the number of cells used depends largely on the plating efficiency of the cell line and must be determined empirically prior to the experiment; and (4) at the conclusion of the experiment, the cells are fixed, stained, and counted. The primary measure is to count surviving colonies of 25-50 cells which is presented as the percentage of cells which survived the treatment. A graphical representation of survival versus exposure time to CS is then generated. The surviving fraction is determined by dividing the number of colonies in the dish by the number of the colonies in the control (non-treated) dish.
A549 cells were exposed to smoke as previously described (see above). Following smoke exposure the medium is aspirated and the cells rinsed refed with 37° C. BEGM and placed in a 37° C., 5% CO2 humidified incubator for two to three hours. The cells are harvested by trypsinization with trypsin-EDTA (0.25% trypsin-0.38 mg/ml EDTA, Invitrogen). Cells are centrifuged at 260×g for 8 min. Cell pellets are resuspended in 1 ml of Ham's F-12K medium, 10% FBS (complete medium) per pellet and counted. Cells are serially diluted so that the mock treated have ˜65 cells per well and smoke treated have ˜300 cells per well when seeded onto 96-well flat bottom tissue culture plates; one plate per condition. The plates are incubated for five days in a 37° C., 5% CO2 humidified incubator. The colonies of cells are fixed with 5% formaldehyde/PBS and colored with 0.8% crystal violet solution for visualization. The colonies are counted with the aid of a macroscopic dissecting microscope. The cloning efficiency results are expressed in relation to the mock exposed cells. Unless otherwise indicated, each bar in the graphs represents three replicate data points per experiment.
In yet another series of experiments, the effect of NAC on cell death caused by the VAPOR phase of smoke from different cigarettes was evaluated. A549 cells were exposed to the vapor phase of smoke for 20 min by inserting a Cambridge filter pad immediately after the cigarette in the smoking apparatus so as to filter out the particulate matter (“tar”) and leave only the vapor phase. […]

[4] = tested on: tobacco leaf disks; assay: Norflurazone resistance of tobacco leaf disks transformed with PDSM genes; conditions: Agrobacterium transformation of tobacco leaf disks; various norflurazone concentrations
Method: Other aspects of the invention concern the discovery of several mutants of the phytoene desaturase gene that confer resistance to the herbicide norflurazone (e.g., SEQ. ID. Nos.10, 11, and 12). These herbicide resistance genes were used as selectable markers in the transformations above. Typically, the selection was accomplished by introducing the transformed plant tissue to the norflurazone (e.g., 0.005 uM-0.1 uM conc.). That is, the concentration of norflurazone that can be used to select positive transformants containing a norflurazone resistance gene, as described herein can be at least, less than, greater than, or equal to 0.005, 0.006, 0.007, 0.008, 0.009, 0.01, 0.02, 0.03, 0.04, 0.05, 0.06, 0.07, 0.08, 0.09, 0.1, 0.2, 0.3, 0.4, 0.5, 0.6, 0.7, 0.8, 0.9, or 1.0 uM. Preferably, less than or equal to 0.05 uM concentration of norflurazone is used when selecting transformants with Flue-cured tobacco and less than or equal to 0.0125 uM concentration norflurazone is used when selecting transformants with Burley tobacco. As the plantlet develops, selection was accomplished by differentiating the green shoots (positive transformants) from the yellow or white shoots (negative transformants). Once selection was made, the herbicide was removed and the plantlet was allowed to develop in the greenhouse.
The norflurazone resistant phytoene desaturase mutants (PDSM-1, PDSM-2, and PDSM-3) were generated by site-directed mutagenesis of particular regions of the gene believed to be involved in binding of the herbicide. Constructs carrying the various PDSM genes were then transferred to tobacco leaf disks by conventional Agrobacterium transformation and the resistance to norflurazone was analyzed at various concentrations. After several iterations, the mutants described as SEQ. ID. […] Accordingly, aspects of the invention concern the PDSM genes described herein, their use in plants as selectable markers to identify plant cells that contain a transformed gene, whether in tissue culture or in the field, and methods of identifying new PDSM genes that confer norflurazone resistance.

CC(=O)N[C@@H](CS)C(=O)O [NAC, N-acetyl-L-cysteine]
effect of NAC on vapor phase damage ([1]; A549, each cell cycle phase, vapor phase from Quest 1 and Quest 3): reduced damage to background levels | suppression of DNA damage (γH2AX) ([1]; A549, entire population, IM 16 whole smoke 20 min, 1 h recovery): greater than 80% | suppression of γH2AX ([1]; A549, entire population, IM 16 whole smoke, 25 mM NAC during exposure and during 1 h recovery): 90% | mitigation of DNA damage ([1]; A549, IM 16 whole smoke, 25 mM NAC applied to the media following exposure only): did nothing to mitigate the DNA damage | effect of NAC on DNA damage ([1]; A549, smoke from IM 16): dramatically reduced the effects of smoke | effect of NAC on DNA damage ([1]; A549, smoke from Omni): reduced the damage to near background levels | effect of NAC on DNA damage ([1]; A549, smoke from Quest 3): reduced to background levels | reduction of γH2AX by NAC ([1]; A549, vapor phase of smoke from IM 16, NAC during exposure): 93.2% | reduction of γH2AX by NAC ([1]; A549, vapor phase of smoke from Quest 1, NAC during exposure): 98.9% | reduction of γH2AX by NAC ([1]; A549, vapor phase of smoke from Quest 3, NAC during exposure): 100% | reduction of γH2AX by NAC ([1]; A549, whole smoke from IM 16, 25 mM NAC during exposure): 89.1% | suppression of DNA damage (γH2AX) ([1]; A549 G1 cells, IM 16 whole smoke): 91% | reduction of damage by NAC ([1]; A549 G1 phase, vapor phase of smoke from IM 16): 98.5% | suppression of DNA damage (γH2AX) ([1]; A549 G2M cells, IM 16 whole smoke): 88% | reduction of damage by NAC ([1]; A549 G2M phase, vapor phase of smoke from IM 16): 92.2% | suppression of DNA damage (γH2AX) ([1]; A549 S phase cells, IM 16 whole smoke): 82% | reduction of damage by NAC ([1]; A549 S phase, vapor phase of smoke from IM 16): 89.0% | concentration dependence of NAC protection ([1]; G1 and G2M A549 cells, IM 16 whole smoke 20 min, 1 h recovery): began to decrease when as little as 1 mM NAC was present | IC50 ([1]; A549, G1 phase A549 cells, IM 16 whole smoke): ~4.5 mM | IC50 ([1]; A549, G2M phase A549 cells, IM 16 whole smoke): ~7.5 mM | IC50 ([1]; A549, S phase A549 cells, IM 16 whole smoke): ~2.6 mM | concentration dependence of NAC protection ([1]; S phase A549 cells, IM 16 whole smoke 20 min, 1 h recovery): unaffected by the presence of NAC up to a concentration of 5 mM | decrease of DNA damage by NAC ([2]; NHBE G1 cells, IM 16 whole smoke, 25 mM NAC present during exposure): ~69% | decrease of DNA damage by NAC ([2]; NHBE G2M cells, IM 16 whole smoke, 25 mM NAC present during exposure): about 65% | protection by NAC ([2]; NHBE S phase cells, IM 16 whole smoke, 25 mM NAC present during exposure): afforded no protection | protection by NAC ([2]; NHBE, IM 16 whole smoke, 25 mM NAC during exposure and recovery): small degree of additional protection | effect of NAC on level of DNA damage ([2]; NHBE, IM 16 whole smoke, 25 mM NAC only during recovery): little effect on the level of DNA damage | effect of NAC on vapor phase DNA damage ([2]; NHBE, vapor phase of IM 16, Quest 1 or Quest 3): abolished virtually all DNA damage | effect of NAC on vapor phase damage ([2]; NHBE, vapor phase of smoke from IM 16 (FIG. 13)): to background levels or below | effect of NAC on vapor phase damage ([2]; NHBE, vapor phase of smoke from Quest cigarettes): inhibited | reduction of γH2AX by NAC ([2]; NHBE, whole smoke from IM 16, NAC during exposure): 77.9% | protection of cell viability by NAC ([3]; 20 min IM16 smoke, various concentrations of NAC (FIG. 16)): protected the viability of the cells in a dose-dependent manner | protection of cell viability by NAC ([3]; 20 min Omni or IM16 smoke, 25 mM NAC): partially protected | protection of cell viability by NAC ([3]; 20 min Quest 3 smoke, 25 mM NAC): completely protected | protection of cell viability by NAC ([3]; all vapor phase exposures, 25 mM NAC): protected the cells against viability loss

PDSM-1: Arabidopsis phytoene desaturase mutant gene, T to G at position 1478 (Valine to Glycine at residue 493)
resistance to norflurazone [4]: confer resistance to norflurazone

PDSM-2: Arabidopsis phytoene desaturase mutant gene, G to C at position 863 (Arginine to Proline at residue 288)
resistance to norflurazone [4]: confer resistance to norflurazone

PDSM-3: Arabidopsis phytoene desaturase mutant gene, T to C at position 1226 (Leucine to Proline at residue 409)
resistance to norflurazone [4]: confer resistance to norflurazone
